Source: patent publication US20020061849A1, “Methods for treatment of diseases associated with inflammation under non-ischemic conditions” (priority 2000, published 2002)

What was measured:
[1] = system: adriamycin-induced nephrotic syndrome; assay: Adriamycin-induced nephrotic syndrome
Description: Protocol IV-1. Rats were treated with adriamycin (7.5 mg/kg i.p.; n=12) and followed for 21 days, respectively. Shams received saline i.p. (n=6). […] The other half received vehicle (saline) in osmotic minipumps.
Protocol IV-3. Rats were treated with adriamycin (7.5 mg/kg i.p.; n=8) and followed for 21 days, respectively. Shams received saline i.p. (n=6). Half of the adriamycin treated animals received epoetin (100 units/kg/day) during the entire experiments. The other half received vehicle (saline).

[2] = system: renal function in rats treated with continious LPS infusion; assay: Systemic LPS infusion by osmotic minipump for three days, renal function; details: for increase of GFR (creatinin clearance) compared to the LPS-Vehicle group: LPS infusion for three days; for survival during 3 days of LPS-administration: N=5 per group, mortality in vehicle group 20%
Description: To relieve postoperative pain, rats were treated with buprenorfin, 0.2 mg/kg body weight i.p. Two weeks later the rats were anesthetized with halothane-nitrous oxide and a osmotic minipump (Alzet 1003D)filled with a LPS solution was implanted into the abdomen. The mean infusion rate of LPS was 200 μg/kg/hour. All rats except the control rats received LPS infusion. N=5 in all groups.
Protocol II: Systemic LPS-infusion:
II-1. Controls. Untreated rats without LPS infusion.
II-2 Vehicle: Rats receiving LPS infusion treated with 0.5 ml 0.9% NaCl twice daily.
II-3 rh-EPO: Rats receiving LPS infusion treated with 200 I.U. epoitin alpha (EPO)/kg body weight in 0.5 ml 0.9% NaCl twice daily.

[3] = system: purimycin-induced nephrotic syndrome; assay: Purimycin (PAN)-induced nephrotic syndrome
Description: Nephrotic syndrome was induced by a single i.p. or s.c. injection of adriamycin or purimycin (at various doses) and the rats were followed for 7 days-21 days. Development of severe nephrotic syndrome was established by monitoring the total body weight, urinary protein excretion (proteinuria) and at time of ending the experiment the volume of fluid in the abdominal cavity was determined (rats develop severe water retention and ascites).
Protocol IV-2. Rats were treated with purimycin (100 mg/kg i.p., n=6) and followed for 11 days, respectively.
To determine the levels of proteinuria in experimental nephrotic syndrome urine was examined daily using Albym (Boehringer-Mannheim).

AQP2 = assay: Bilateral ureteral obstruction (BUO), semiquantitative immunoblotting of AQP2; assay type: in vivo, rat; details: inner medulla, 24 h BUO; α-MSH 50 μg i.v. at onset and 12 hours later (nontreated 13±4%); epoitin 100 U/kg/day i.p. (nontreated 16±3%)
Description: (§1) Adult Munich-Wistar rats were anesthetized with halothane and placed on a heating board under an operating microscope, Through a midline abdominal incision both ureters were exposed and occluded by placing a 5-mm piece of bisected polyethylene tubing (PE-50) around the midportion of each ureter. The ureter was then occluded by tightening the tubing with a 5-0 silk ligature. 24 hours later, the obstructed ureters were decompressed by removal of the ligature and the PE-50 tubing. Done in this manner, both ureters could be completely occluded for 24 h and without evidence of functional impairment of ureteral function and rats followed up to several days after release of obstruction.
(§2) Protocol III-1: This protocol included 1) Rats with BUO for 24 hours (n=20) and 2) sham-operated rats (n=10).
Protocol III-6: This protocol included 1) Rats with BUO for 24 hours and 2) sham-operated rats. […]
(§3) ECL films with bands within the linear range were scanned using an AGFA scanner (ARCUS II) and Corel Photopaint Software to control the scanner. […] The labeling density was determined of blots where samples of kidneys from α-MSH treated and nontreated groups were run together with samples from control kidneys. […]

[4] = system: renal function in rats with BUO; assay: Bilateral ureteral obstruction (BUO), plasma parameters and clearance studies; assay type: in vivo, rat
Description: as §1, §2
(§4) Protocol III-3: This protocol included 1) Rats with BUO for 24 hours and followed by release for 48 hours. The rats were divided into two groups: α-MSH nontreated (n=10) and α-MSH treated (n=13). α-MSH (50 μg) was given with micro-osmotic pump via jugular vein at the onset of BUO. 2) Sham operated rats (n=8) treated with vehicle with micro-osmotic pump.
1) Rats with BUO for 24 hours followed by release for 48 hours (n=10) and 2) sham-operated rats (n=5).
Weight, water intake, food intake and urine output were observed during the rats were maintained in the metabolic cages. Urine was collected over 24-h periods throughout the study. Urine volume, osmolality, creatinine, sodium and potassium concentration were measured. Plasma was collected from abdominal aorta at the time of sacrifice for measurement of sodium and potassium concentration, creatinine, and osmolality. In protocols 4 and 9 detailed examinations of renal function was performed: The experiments were carried out between 8 a.m. and 1 p.m. The rats were transferred to a restraining cage and connected to infusion pumps via the vein catheter and to a BP transducer via the arterial catheter. Urine was collected in three periods of 20 min preceded by an equilibration period of 105 min. Throughoutthe experiment, a half isotone saline (77 mM NaCl) was infused at a rate of 70 μl/min to maintain a minimum urine flow necessary for accuracy of the bladder emptying. ^14C-tetraethylammonium bromide (0.83 μCi/ml; New England Nuclear, Boston, Mass.), together with ^3H-inulin (2.5 μCi/ml; Amersham, Rainham, United Kindgom) and LiCI (13 mmol/L), were infused together with the saline as markers of effective renal plasma flow (ERPF), GFR, and tubular fluid delivery from proximal tubules (Vprox), respectively. A bolus of markers four times the continuous infusion velocity was given in the first 15 min. Blood samples (200 μl) were drawn from the arterial catheter after 105 and 165 min. Blood substitution with donor blood was given after each blood sample. Mean arterial BP was recorded continuously using a Uniflow™ transducer (Baxter, Irvine, Calif.) connected to a preamplifier and PC registration. Clearance experiments were carried out in BUO and SHAM rats 7 days prior to obstruction and 48 hours after release of BUO.
Urine volume was determined by gravimetric means.

[5] = system: lung tissue exposed with LPS; assay: LPS-inhalation induced lung inflammation, differential counting of lavage cells; details: rats, LPS inhalation 5 mg for 20 min, lavage 24 h later, treatment at onset of LPS and after 12 hours (α-MSH 50 μg i.v.; Epoitin 100 U/kg/day i.p.)
Description: Studies were performed on male Spraque Dawley rats (Møllegard Breeding centre Ltd., Eiby, Denmark). The rats were maintained on a standard rodent diet (Altromin, Lage, Germany) with free access to water. Inflammation of the lungs (asthma) was induced by LPS inhalation with the animals anesthetized using Midazolam and Hypnorm The LPS was administrated by connecting the rat to a semiclosed breathing system consisting of a MAXIN bottle filled with a mixture of LPS in saline connected to a standard inhalation chamber. Each animals is exposed for 20 min with 5 mg LPS. Twenty-four hours after exposure to LPS rats were killed. Subsequently, lavage was performed by washing the lungs with PBS (5 ml) 6 times. The lung tissue was then centrifuged for 10 min (1000 rpm) and resuspended in 0.5 ml. From each sample 2 blood smears were made. They were air-dryed, fixed and counterstained for differential cell counting.

AQP1 = assay: Bilateral ureteral obstruction (BUO), semiquantitative immunoblotting of AQP1; assay type: in vivo, rat
Description: as §1
(§5) Protocol III-2: This protocol included 1) Rats with BUO for 24 hours and followed by release for 5 hours (n=10) and 2) Sham operated rats (n=5). The rats with BUO-R were divided into two groups: α-MSH nontreated (n=5) and α-MSH treated (n=5). α-MSH ([…], i.v.) was given at the onset of BUO, 12 hours later and at the onset of release.
as §4
Inner medulla and whole kidneys were homogenized (0.3 M sucrose, 25 mM imidazole, 1 mM EDTA, pH 7.2, containing 8.5 μM leupeptin. 1 mM phenylmethyl sulfonylfluoride) using an ultra-turrax T8 homogenizer (IKA Labortechnik, Germany), at 5 strokes for 20 seconds (inner medulla) or at 5.5 strokes for 30 seconds (whole kidney) and the homogenate was centrifuged in an Eppendorf centrifuge at 4000 g for 15 minutes at 4° C. to remove whole cells, nuclei and mitochondria. Gel samples (Laemmli sample buffer containing 2% SDS) were made of this pellet.
[…] For each gel, identical gel was run in parallel and subjected to Coomassie staining to assure identical loading. Then gels were subjected to immunoblotting. […] The labeling was visualized with horseradish peroxidase (HRP)-conjugated secondary antibodies (P448, DAKO, Glostrup Denmark, diluted as 1:3000) using an enhanced chemiluminescence system (ECL, Amersham International, UK).
ECL films with bands within the linear range were scanned using an AGFA scanner (ARCUS II) and Corel Photopaint Software to control the scanner. For AQP1 and AQP2, both the 29-kDa and the 35- to 50-kDa bands (corresponding to nonglycosylated and the glycosylated species) were scanned. […] The labeling density was determined of blots where samples of kidneys from α-MSH treated and nontreated groups were run together with samples from control kidneys. […]

Na,K-ATPase = assay: Bilateral ureteral obstruction (BUO), semiquantitative immunoblotting of Na,K-ATPase; assay type: in vivo, rat; details: whole kidney; for Na-K-ATPase levels, % of control: nontreated 35-50% of control levels
Description: as §1, §2, §5
Protocol III-3: This protocol included 1) Rats with BUO for 24 hours and followed by release for 48 hours. The rats were divided into two groups: α-MSH nontreated (n=10) and α-MSH treated (n=13). α-MSH (50 μg) was given with micro-osmotic pump via jugular vein at the onset of BUO. 2) Sham operated rats (n=8) treated with vehicle with micro-osmotic pump. […]
as §3

AQP3 = assay: Bilateral ureteral obstruction (BUO), semiquantitative immunoblotting of AQP3; assay type: in vivo, rat; details: inner medulla
Description: as §1, §2
Protocol III-2: This protocol included 1) Rats with BUO for 24 hours and followed by release for 5 hours (n=10) and 2) Sham operated rats (n=5). […]
as §3

[6] = BUO for 24 h followed by 48 h of release

α-melanocyte-stimulating hormone [α-MSH]
prevention of ascites production ([1]; adriamycin i.p. (Protocol IV-1), α-MSH for 3-4 days after injection): 89±7%
increase of GFR (creatinin clearance) compared to the LPS-Vehicle group [2]: 57%
survival during 3 days of LPS-administration [2]: All animals survived
proteinuria levels ([3]; PAN rats at day 5 after PAN injection (FIG. 3), result in words): marked reduction
proteinuria ([3]; low dose purimycin treatment (Protocol IV-2), result in words): marked reduction
reduction of ascites production ([3]; low dose purimycin treatment, n=6 (Protocol IV-2)): 80±8%
preventive effect on nephrotic syndrome ([3]; very servere purimycin (high dose) induced nephrotic syndrome, result in words): less potent effect
AQP2 expression, % of sham level (AQP2): 38±5%
plasma sodium levels ([4]; 24 h BUO, without α-MSH 135±2 mmol/L): 139 ± 0.6 mmol/L
Glomerular filtration rate (GFR) ([4]; 48 hours after release of BUO, SHAM 840±105): 705±85 μl/min/100 g
Effective renal plasma flow (ERPF) ([4]; 48 hours after release of BUO, SHAM 2633±457): 2598±129 μl/min/100 g
plasma urea ([4]; BUO for 24 h followed by 48 of release, nontreated 35±9 mmol/l): 13 ± 2 mmol/L
Plasma creatinine levels ([4]; BUO for 24 h followed by 48 of release, nontreated 160±34 μmol/l): 79 ± 34 µmol/L
ERPF, result in words [4, 6]: completely normalized
GFR, result in words [4, 6]: completely normalized
Differential counting of cells %, Eosinofiles [5]: 1.8±1.3%
Differential counting of cells %, Lymfocytes [5]: 72.3 ± 12.1%
Differential counting of cells %, Monocytes [5]: 12.3 ± 7.4%
AQP1 expression, % of sham level (AQP1; outer medulla and cortex, 24 h BUO followed by release for 5 hours, nontreated 35±2%): 62±9%
AQP1 expression, % of sham level (AQP1; outer medulla and cortex, 24 h BUO followed by release for 48 hours, α-MSH by micro-osmotic pump): 73±8%
AQP1 expression, % of sham level (AQP1; whole kidney, 24 h BUO followed by release for 5 hours, α-MSH 50 μg i.v. at onset, 12 hours later and at release, nontreated 7±2%): 81±21%
AQP1 expression, % of sham level (AQP1; whole kidney, 24 h BUO followed by release for 48 hours, α-MSH 50 μg by micro-osmotic pump, nontreated 24±5%): 58±6%
Na-K-ATPase levels, % of control (Na,K-ATPase; 24 h BUO followed by 5 h of release): 102±14%
Na,K-ATPase levels (Na,K-ATPase; 24 h BUO, result in words): completely normalized
Na-K-ATPase levels, % of control (Na,K-ATPase; 48 hours after release of BUO): 114±10%
AQP3 expression, % of sham level (AQP3; 24 h BUO followed by release for 5 hours, nontreated 14±5%): 34±4%
AQP3 expression, % of sham level (AQP3; 24 h BUO, α-MSH 50 μg i.v. at onset and 12 hours later, nontreated 19±4%): 44±3%

epoitin alpha
ascites formation, result in words ([1]; adriamycin-induced nephrotic syndrome, EPO once every 24 hours): prevented the ascites formation
increase of GFR (creatinin clearance) compared to the LPS-Vehicle group [2]: 51%
survival during 3 days of LPS-administration [2]: All animals survived
AQP2 expression, % of sham level (AQP2): 30±18%
Differential counting of cells %, Eosinofiles [5]: 0.7 ± 0.6%
Differential counting of cells %, Lymfocytes [5]: 77.1 ± 9.9%
Differential counting of cells %, Monocytes [5]: 11.4 ± 4.6%
Differential counting of cells %, Neutrofiles [5]: 10.9 ± 12.7%
Differential counting of cells %, Eosinofiles ([5]; listed as epoitin): 0.7±0.6%
Differential counting of cells %, Neutrofiles ([5]; listed as epoitin): 10.9±12.7%
